Test systems include A549; ACHN; CAKI-1; CCRF-CEM; COLO 205; HCT-15; IGROV-1; Malme-3M; OVCAR-4; OVCAR-8; RXF 393; TK-10; UACC-257; A498; HCC 2998; OVCAR-5; SF-268; SR.
Holding throughout (test): NCI tumour cell line growth inhibition, 48 h

The structures appear in SMILES notation.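 Each compound was tested at five concentrations against cells in 96-well plates for 48 hours. GI50: concentration for 50% inhibition of growth.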 Activity calls are given as the source filed them. Rule as the data show it: active = GI50 up to about 1.1 µM and inactive = higher.

Consider `CC(C)(C)c1cc(C2c3cc4c(cc3OC(O)(CO)C2C(=O)O)OCO4)cc(C(C)(C)C)c1O.CC(C)(C)c1cc(C2c3cc4c(cc3OC3(O)COC(=O)C23)OCO4)cc(C(C)(C)C)c1O` (configuration not stated), for which the GI50 is 18.7 µM (inactive) in the experiment with A549; 14.8 µM (inactive) in the experiment with ACHN; 18.4 µM (inactive) in the experiment on CAKI-1; 3.58 µM (inactive) with CCRF-CEM; 20.4 µM (inactive) in the experiment on COLO 205; 8.2 µM in the experiment on HCT-15. Also, the GI50 was 16.4 µM (inactive) with IGROV-1; 16.6 µM (inactive) in the experiment on Malme-3M; 11.7 µM (inactive) in the experiment on OVCAR-4; 10 µM (inactive) in the experiment on OVCAR-8; 11.9 µM (inactive) in the experiment with RXF 393; 22.7 µM (inactive) in the experiment with TK-10. Further, the GI50 with UACC-257 was 13.2 µM (inactive).

For `Cc1oc2c(C)c3oc(=O)cc(C)c3cc2c1CN`, the GI50 in the experiment with A498 was 41.5 µM (inactive); in the experiment on A549 it was 40.3 µM (inactive); in the experiment on ACHN it was 27.7 µM (inactive); in the experiment with CCRF-CEM it was 41.9 µM (inactive); in the experiment with COLO 205 it was 33.1 µM (inactive); in the experiment on HCC 2998, 28.1 µM (inactive). Also, the GI50 was 36.9 µM with HCT-15; 25.2 µM (inactive) in the experiment on Malme-3M; 40.6 µM (inactive) with OVCAR-4; 42.1 µM (inactive) with OVCAR-5; 40.6 µM (inactive) in the experiment on OVCAR-8; 15.9 µM (inactive) in the experiment with RXF 393. In addition, the GI50 is 31 µM (inactive) with SF-268, 27.8 µM (inactive) in the experiment on TK-10 and 41.3 µM (inactive) with UACC-257.

Turning to `COc1cc(-c2ccccc2)c(OC)cc1CCl`, the GI50 in the experiment with A498, with A549, with ACHN, with CAKI-1, in the experiment on CCRF-CEM and in the experiment with COLO 205 was > 100 µM (inactive) in each case. Further, the GI50 with HCC 2998 is > 100 µM (inactive); in the experiment with HCT-15 it was more than 100 µM; with IGROV-1, > 100 µM (inactive); with Malme-3M it was > 100 µM (inactive); in the experiment with OVCAR-4, > 100 µM (inactive); in the experiment with OVCAR-5, > 100 µM (inactive). Besides, the GI50 in the experiment on OVCAR-8, in the experiment on RXF 393, in the experiment on SF-268, in the experiment with TK-10 and with UACC-257 was > 100 µM (inactive) throughout.

As to `COc1ccc(/C=C/C(=O)c2cc(C(=O)O)c(OC)cc2OC)cc1OC`, the GI50 in the experiment with A498 is > 100 µM (inactive); with A549 it was > 100 µM (inactive); with ACHN, > 100 µM (inactive); with CCRF-CEM, > 100 µM (inactive); in the experiment with COLO 205, > 100 µM (inactive); in the experiment on HCT-15, more than 100 µM. For the same compound, the GI50 with IGROV-1, in the experiment with OVCAR-4, with OVCAR-5, in the experiment on OVCAR-8, in the experiment on SF-268 and in the experiment with SR was > 100 µM (inactive) each time. Also, in the experiment with UACC-257, the GI50 is > 100 µM (inactive).

`O=c1c2ccccc2c(=O)c2c1c1[nH]c3ccccc3c1c1c(=O)c3ccccc3c(=O)c21`: the GI50 in the experiment on A498 is > 100 µM (inactive); in the experiment with A549 it was > 100 µM (inactive); in the experiment on ACHN, > 100 µM (inactive); in the experiment with CAKI-1, > 100 µM (inactive); with CCRF-CEM, 94 µM (inactive); with COLO 205, > 100 µM (inactive). Besides, the GI50 in the experiment with HCC 2998 is > 100 µM (inactive); in the experiment on HCT-15, more than 100 µM; in the experiment on IGROV-1, > 100 µM (inactive); in the experiment with Malme-3M, > 100 µM (inactive); with OVCAR-4 it was > 100 µM (inactive); with OVCAR-5 it was > 100 µM (inactive). The GI50 in the experiment on OVCAR-8, in the experiment with RXF 393, in the experiment on SF-268, in the experiment on TK-10 and with UACC-257 was > 100 µM (inactive) throughout.

On to `O=C(Nc1ccc([N+](=O)[O-])cc1C(=O)O)c1ccc([N+](=O)[O-])cc1`, for which the GI50 with A498 was 71.9 µM (inactive); with A549 it was 59.6 µM (inactive); in the experiment on ACHN, 25.3 µM (inactive); with CCRF-CEM, 11.4 µM (inactive); with COLO 205, > 10 µM (inactive); with HCC 2998, 16 µM (inactive). Also, the GI50 was 20.8 µM in the experiment on HCT-15; 29.2 µM (inactive) in the experiment on IGROV-1; 32.4 µM (inactive) in the experiment with Malme-3M; 27.4 µM (inactive) in the experiment on OVCAR-4; 45.8 µM (inactive) in the experiment with OVCAR-5; 32.1 µM (inactive) in the experiment on OVCAR-8. Also, the GI50 in the experiment on SF-268 was 37.7 µM (inactive); in the experiment with TK-10, 70.3 µM (inactive); in the experiment on UACC-257, 40 µM (inactive).

With `O=[PH](O)c1cc2ccccc2c2ccccc12`, the GI50 in the experiment on A549, with CCRF-CEM, with COLO 205, in the experiment with HCC 2998, in the experiment on IGROV-1 and in the experiment on OVCAR-4 was > 100 µM (inactive) each time. Moreover, the GI50 in the experiment with OVCAR-8, with RXF 393, in the experiment with SF-268 and with TK-10 was > 100 µM (inactive) each time.

Regarding `CC(=O)OC(CC1(C)C(C)CCC23COC(=O)C2=CCCC31)c1ccoc1` (configuration not stated), the GI50 in the experiment on A498 is 45.3 µM (inactive); in the experiment with A549 it was 31.6 µM (inactive); in the experiment with ACHN, 28.8 µM (inactive); in the experiment on CCRF-CEM, 20.2 µM (inactive); in the experiment on COLO 205, 40.4 µM (inactive); in the experiment on HCC 2998, 22.3 µM (inactive). Further, the GI50 was 20.4 µM in the experiment on HCT-15; 21.8 µM (inactive) in the experiment on Malme-3M; 28.1 µM (inactive) with OVCAR-4; 28.2 µM (inactive) with OVCAR-5; 20.3 µM (inactive) in the experiment on OVCAR-8; 14.2 µM (inactive) in the experiment on RXF 393. The values for the GI50 in the experiment on SF-268 and with UACC-257 were 15.9 µM (inactive) and 24 µM (inactive), respectively.

For `C=C1C2CC(OC(C)=O)C3(C)C(c4ccoc4)OC(=O)[C@@H](O)[C@]13OC1C[C@H](OC(C)=O)C(C)(C)[C@H](CC(=O)OC)[C@]12C` (some centres not stated), the GI50 with A498, with A549, in the experiment with ACHN, in the experiment with CCRF-CEM, in the experiment with COLO 205 and with HCC 2998 was > 100 µM (inactive) throughout. Besides, the GI50 is more than 100 µM in the experiment with HCT-15; > 100 µM (inactive) with IGROV-1; 93.5 µM (inactive) with OVCAR-4; > 100 µM (inactive) with OVCAR-8; > 100 µM (inactive) with TK-10.

`N#C/C(=C\c1ccc(O)c(O)c1)C(N)=O`: the GI50 in the experiment with A498 is > 100 µM (inactive); with A549 it was 46.2 µM (inactive); with ACHN it was 41.6 µM (inactive); with CAKI-1, 95.9 µM (inactive); in the experiment with CCRF-CEM, 5.78 µM (inactive); in the experiment on COLO 205, 58.1 µM (inactive). In addition, the GI50 with HCC 2998 was 53.1 µM (inactive); in the experiment with HCT-15, 50.6 µM; in the experiment with IGROV-1, 76.4 µM (inactive); in the experiment with Malme-3M, 50.6 µM (inactive); with OVCAR-4, 67.1 µM (inactive); in the experiment with OVCAR-5, > 100 µM (inactive). The GI50 with OVCAR-8 was 43.4 µM (inactive); with RXF 393 it was 19.7 µM (inactive); in the experiment with SF-268 it was 35 µM (inactive); with TK-10 it was 77.6 µM (inactive); with UACC-257, 36 µM (inactive).

The values are drawn from ChEMBL document CHEMBL1201862, “PubChem BioAssay data set” (2004).
